Measurements from patent US7393812B2, “Methylidene mevalonates and their use as herbicides” (Dow AgroSciences LLC, priority 2004, dated 2008).

Legend:
Experiment in all cases: Post-emergent evaluation
Assay type in all cases: in vivo
Conditions in all cases: after 2 weeks
[1] = tested on: barnyardgrass (Echinochloa crusgalli, ECHCG)
Procedure: (§1) Seeds of the desired test plant species were planted in Grace-Sierra MetroMix® 306 planting mixture, which typically has a pH of 6.0 to 6.8 and an organic matter content of about 30 percent, in plastic pots with a surface area of 64 square centimeters. When required to ensure good germination and healthy plants, a fungicide treatment and/or other chemical or physical treatment was applied. The plants were grown for 7-21 days in a greenhouse with an approximate 15 hr photoperiod which was maintained at about 23-29° C. during the day and 22-28° C. during the night. Nutrients and water were added on a regular basis and supplemental lighting was provided with overhead metal halide 1000-Watt lamps as necessary. The plants were employed for testing when they reached the first or second true leaf stage.
(§2) A weighed amount, determined by the highest rate to be tested, of each test compound was placed in a 20 mL glass vial and was dissolved in 4 mL of a 97:3 v/v (volume/volume) mixture of acetone and dimethyl sulfoxide (DMSO) to obtain concentrated stock solutions. […] The concentrated stock solutions obtained were diluted with an aqueous mixture containing acetone, water, isopropyl alcohol, DMSO, Atplus 411F crop oil concentrate, and Triton X-155 surfactant in a 48.5:39:10:1.5:1.0:0.02 v/v ratio to obtain spray solutions of known concentration. The solutions containing the highest concentration to be tested were prepared by diluting 2 mL aliquots of the stock solution with 13 mL of the mixture and lower concentrations were prepared by serial dilution of the stock solution. Approximately 1.5 mL aliquots of each solution of known concentration were sprayed evenly onto each of the test plant pots using a DeVilbiss atomizer driven by compressed air pressure of 2 to 4 psi ([…]) to obtain thorough coverage of each plant. Control plants were sprayed in the same manner with the aqueous mixture. In this test an application rate of 1 ppm results in the application of approximately 1 g/Ha.
(§3) The treated plants and control plants were placed in a greenhouse as described above and watered by sub-irrigation to prevent wash-off of the test compounds. […] Species abbreviations as described for Table I with the following additions: soybean (Glycine max, GLXMA), rape (Brassica napus, BRSNN), chickweed (Stellaria media, STEME), cocklebur (Xanthium strumarium XANST), lambsquarters (Chenopodium album, CHEAL), violet (Viola tricolor, VIOTR), bindweed (Polygonum convolvulus, POLCO), spurge (Euphorbia heterophylla, EPHHL), Canada thistle (Cirsium arvense, CIRAR), corn (Zea mays, ZEAMX), rice (Oryza sativa, ORYSA), wheat (Triticum aestivum, TRZAS), crabgrass (Digitaria sanguinalis, DIGSA), shattercane (Sorghum vulgare, SORVU) and yellow nutsedge (Cyperus esculentus, CYPES).
(§4) By applying the well-accepted probit analysis as described by J. Berkson in Journal of the American Statistical […], 48, 565 (1953) and by D. Finney in “Probit Analysis” Cambridge University Press (1952), similar data can be used to calculate GR80 values, which are defined as growth reduction factors that correspond to the effective dose of herbicide required to kill or control 80 percent of a target plant. Species abbreviations are as previously defined.

[2] = tested on: chickweed (Stellaria media, STEME)
Procedure: as §1, §2, §3, §4

[3] = tested on: giant foxtail (Setaria faberi, SETFA)
Procedure: as §1, §2, §3, §4

[4] = tested on: morningglory (Ipomoea hederacea, IPOHE)
Procedure: as §1, §2, §3, §4

[5] = tested on: shattercane (Sorghum vulgare, SORVU)
Procedure: as §1, §2, §3, §4

[6] = tested on: velvetleaf (Abutilon theophrasti, ABUTH)
Procedure: as §1, §2, §3, §4

[7] = tested on: violet (Viola tricolor, VIOTR)
Procedure: as §1, §2, §3, §4

For `C=C(CO)C(C)(O)CC(=O)O` (centres unmarked) [methylidene mevalonate, 3-hydroxy-4-(hydroxymethyl)-3-methylpent-4-enoic acid], the “Postemergent % Control” value ([1]; spray concentration 125 ppm) was 40%, the “Postemergent % Control” value ([1]; spray concentration 250 ppm) was 85% and the “Postemergent % Control” value ([1]; spray concentration 500 ppm) was 95%. For the same compound, the “Postemergent % Control” value ([1]; spray concentration 1000 ppm) was 95%, the “Postemergent % Control” value ([1]; spray concentration 2000 ppm) was 100% and the “Postemergent % Control” value ([2]; spray concentration 125 ppm) was 0%. For the same compound, the “Postemergent % Control” value ([2]; spray concentration 250 ppm) was 0%, the “Postemergent % Control” value ([2]; spray concentration 500 ppm) was 0% and the “Postemergent % Control” value ([2]; spray concentration 1000 ppm) was 20%. For the same compound, the “Postemergent % Control” value ([2]; spray concentration 2000 ppm) was 40%, the “Postemergent % Control” value ([3]; spray concentration 125 ppm) was 30% and the “Postemergent % Control” value ([3]; spray concentration 250 ppm) was 70%. For the same compound, the “Postemergent % Control” value ([3]; spray concentration 500 ppm) was 70%, the “Postemergent % Control” value ([3]; spray concentration 1000 ppm) was 80% and the “Postemergent % Control” value ([3]; spray concentration 2000 ppm) was 90%. The “Postemergent % Control” value ([4]; spray concentration 125 ppm) was 40%, the “Postemergent % Control” value ([4]; spray concentration 250 ppm) was 50% and the “Postemergent % Control” value ([4]; spray concentration 500 ppm) was 70%. The “Postemergent % Control” value ([4]; spray concentration 1000 ppm) was 80%, the “Postemergent % Control” value ([4]; spray concentration 2000 ppm) was 80% and the “Postemergent % Control” value ([5]; spray concentration 125 ppm) was 0%. The “Postemergent % Control” value ([5]; spray concentration 250 ppm) was 50%, the “Postemergent % Control” value ([5]; spray concentration 500 ppm) was 90% and the “Postemergent % Control” value ([5]; spray concentration 1000 ppm) was 90%. For the same compound, the “Postemergent % Control” value ([5]; spray concentration 2000 ppm) was 90%, the “Postemergent % Control” value ([6]; spray concentration 125 ppm) was 0% and the “Postemergent % Control” value ([6]; spray concentration 250 ppm) was 5%. For the same compound, the “Postemergent % Control” value ([6]; spray concentration 500 ppm) was 20%, the “Postemergent % Control” value ([6]; spray concentration 1000 ppm) was 50% and the “Postemergent % Control” value ([6]; spray concentration 2000 ppm) was 60%. For the same compound, the “Postemergent % Control” value ([7]; spray concentration 125 ppm) was 0%, the “Postemergent % Control” value ([7]; spray concentration 250 ppm) was 0% and the “Postemergent % Control” value ([7]; spray concentration 500 ppm) was 0%. For the same compound, the “Postemergent % Control” value ([7]; spray concentration 1000 ppm) was 25% and the “Postemergent % Control” value ([7]; spray concentration 2000 ppm) was 30%.
